Laboratory results taken from patent US8722890B2 (AbbVie Inc., priority 2008, dated 2014).
pIC50: −log10 of the molar value. Where two headings read alike, the source gives them in different places.

What was measured:
Aurora C = Aurora C (Homo sapiens (Human), UniProt Q9UQB9); experiment: Aurora C activity assay (time-resolved fluorescence); assay type: biochemical; conditions: Table 5; read-out: Aurora C HTRF IC50
Experimental: To determine Aurora A and C activity of representative compounds of the invention, Active Aurora A or C enzyme was incubated in wells of a 384 well plate with biotinylated STK substrate-2 (Upstate), 1 mM ATP, and various concentrations of inhibitors in a Hepes buffer, pH 7.4 containing MgCl2, sodium othrovanadate, and Triton X-100. After 1 hour, the reaction was stopped with EDTA and anti-phospho-STK antibody Europium Cryptate (Upstate) and SA-XL665 (Upstate) were added to detect the phosphopeptide. The amount of phosphorylation was determined by the time-resolved fluorescence ratio of signals at 665 nm and 615 nm. The IC50s were calculated by an exponential fit of the inhibition values with the inhibitor concentrations using Assay Explorer software.

cKIT = cKIT (Homo sapiens (Human), UniProt P10721); experiment: HTRF in vitro kinase assay, cKIT; assay type: biochemical; conditions: PDGFR family; 1 mM ATP
Experimental: (§1) To determine the activity of the various kinases, a homogenous time-resolved fluorescence (HTRF) in vitro kinase assay was used.
(§2) For example for KDR, cKIT, FLT1, CSF1R and FTL3, purified enzyme was mixed with 0.5 μM N-biotinylated substrate (Biotin-Ahx-[…]-amide (SEQ. ID. 1)), various concentrations of inhibitor in reaction buffer (50 mM HEPES, pH 7.1, 10 mM MgCl2, 2 mM MnCl2, 0.1% BSA and 1 mM DTT, 40 μL final volume), ATP (1 mM final conc.) in a black 384-well plate. […] The quenched reaction was allowed to stand at room temperature for 3 hours and was then read in a time-resolved fluorescence detector (InVision, Perkin-Elmer) at 620 nm and 665 nm sequentially with excitation.

Aurora B = Aurora B (Homo sapiens (Human), UniProt Q96GD4); experiment: Aurora B activity assay (time-resolved fluorescence); assay type: biochemical; conditions: Table 3; 1 mM ATP
Experimental: After 1 hour, the reaction was stopped with EDTA and anti-phospho-histone H3 Europium Cryptate (Cis-Bio) and SA-APC (Phycolink, Prozyme) were added to detect the phosphopeptide. The amount of phosphorylation was determined by the time-resolved fluorescence ratio of signals at 665 nm and 615 nm. The IC50's were calculated by an exponential fit of the inhibition values with the inhibitor concentrations using Assay Explorer software.

KDR = KDR (Homo sapiens (Human), UniProt P35968); experiment: HTRF in vitro kinase assay, KDR; assay type: biochemical; conditions: VEGFR family; 1 mM ATP
Experimental: as §1, §2

CYP 3A4 = CYP 3A4 (Homo sapiens (Human), UniProt P08684); experiment: CYP 3A4 Assay (pooled human liver microsomes, midazolam)
Experimental: Assays (200 μL final volume) were carried out in NUNC polypropylene deep well plates in 50 mM potassium phosphate buffer, pH 7.4, using a microtiter plate shaker in a 37° C. incubator. […] A constant amount of dimethylsulfoxide (1%) was added to the incubations with the test compounds, and each analysis was performed in duplicate. For preincubation experiments (Pre), the microsomes, test compounds, and NADPH were mixed and incubated 30 minutes before addition of midazolam. For coincubation experiments (Co), the compounds, microsomes, and midazolam were mixed and the reaction initiated by addition of NADPH to the wells. In both protocols, the complete reaction was terminated after 10 minutes of shaking by addition of 100 μL of a 1/1 mixture of acetonitrile and methanol containing 0.33 μM 1-hydroxytriazolam.
For analysis, an aliquot of each well were transferred to an autosampler vial and 10 μL injected onto a Shimadzu LC-10A HPLC system equipped with a YMC-AQ (2.0×50 mm) column. The components were separated using a gradient of 10% acetonitrile −0.1% acetic acid to 70% acetonitrile −0.1% acetic acid at a flow rate of at 0.4 mL/minute over 5 minutes.

Sequence of Aurora B (Q96GD4 whole entry): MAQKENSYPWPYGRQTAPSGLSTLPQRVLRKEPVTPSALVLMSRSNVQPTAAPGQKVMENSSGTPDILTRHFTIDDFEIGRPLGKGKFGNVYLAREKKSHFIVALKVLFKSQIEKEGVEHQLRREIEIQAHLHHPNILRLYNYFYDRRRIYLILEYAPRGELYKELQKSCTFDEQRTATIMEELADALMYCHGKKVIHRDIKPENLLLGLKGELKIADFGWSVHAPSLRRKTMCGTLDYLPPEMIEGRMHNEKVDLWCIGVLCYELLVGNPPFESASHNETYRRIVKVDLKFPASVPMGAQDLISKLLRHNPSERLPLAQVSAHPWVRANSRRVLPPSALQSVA
Sequence of Aurora B (Q9NQS7 826-918 partner): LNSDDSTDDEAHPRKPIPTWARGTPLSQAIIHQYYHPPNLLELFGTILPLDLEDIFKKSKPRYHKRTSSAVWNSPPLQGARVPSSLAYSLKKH
Sequence of cKIT (P10721 544-976): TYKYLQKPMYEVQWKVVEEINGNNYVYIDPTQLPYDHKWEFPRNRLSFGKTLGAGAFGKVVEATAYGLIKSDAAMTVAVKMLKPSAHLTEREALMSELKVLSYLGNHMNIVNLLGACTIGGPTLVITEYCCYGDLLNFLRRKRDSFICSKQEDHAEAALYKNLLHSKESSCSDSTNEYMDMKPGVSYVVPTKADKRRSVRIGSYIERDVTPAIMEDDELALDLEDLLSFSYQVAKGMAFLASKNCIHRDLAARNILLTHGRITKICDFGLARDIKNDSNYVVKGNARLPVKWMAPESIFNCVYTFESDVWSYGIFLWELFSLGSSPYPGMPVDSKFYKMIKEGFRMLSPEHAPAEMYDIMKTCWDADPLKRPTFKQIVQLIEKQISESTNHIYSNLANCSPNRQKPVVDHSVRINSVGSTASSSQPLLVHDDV
Sequence of CYP 3A4 (P08684 whole entry): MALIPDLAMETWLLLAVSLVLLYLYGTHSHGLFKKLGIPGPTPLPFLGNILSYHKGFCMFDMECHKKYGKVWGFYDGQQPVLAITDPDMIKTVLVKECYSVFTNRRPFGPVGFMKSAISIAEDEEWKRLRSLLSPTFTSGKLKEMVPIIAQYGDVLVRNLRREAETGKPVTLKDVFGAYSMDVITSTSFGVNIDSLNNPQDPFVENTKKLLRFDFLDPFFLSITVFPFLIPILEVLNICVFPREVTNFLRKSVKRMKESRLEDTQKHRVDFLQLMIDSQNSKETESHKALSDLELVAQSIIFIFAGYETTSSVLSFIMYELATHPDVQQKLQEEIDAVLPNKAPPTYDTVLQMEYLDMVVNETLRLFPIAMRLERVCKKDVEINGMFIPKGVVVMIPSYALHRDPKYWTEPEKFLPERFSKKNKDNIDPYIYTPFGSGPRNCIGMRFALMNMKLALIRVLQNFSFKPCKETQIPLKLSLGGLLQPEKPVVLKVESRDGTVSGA
Sequence of KDR (P35968 789-1354): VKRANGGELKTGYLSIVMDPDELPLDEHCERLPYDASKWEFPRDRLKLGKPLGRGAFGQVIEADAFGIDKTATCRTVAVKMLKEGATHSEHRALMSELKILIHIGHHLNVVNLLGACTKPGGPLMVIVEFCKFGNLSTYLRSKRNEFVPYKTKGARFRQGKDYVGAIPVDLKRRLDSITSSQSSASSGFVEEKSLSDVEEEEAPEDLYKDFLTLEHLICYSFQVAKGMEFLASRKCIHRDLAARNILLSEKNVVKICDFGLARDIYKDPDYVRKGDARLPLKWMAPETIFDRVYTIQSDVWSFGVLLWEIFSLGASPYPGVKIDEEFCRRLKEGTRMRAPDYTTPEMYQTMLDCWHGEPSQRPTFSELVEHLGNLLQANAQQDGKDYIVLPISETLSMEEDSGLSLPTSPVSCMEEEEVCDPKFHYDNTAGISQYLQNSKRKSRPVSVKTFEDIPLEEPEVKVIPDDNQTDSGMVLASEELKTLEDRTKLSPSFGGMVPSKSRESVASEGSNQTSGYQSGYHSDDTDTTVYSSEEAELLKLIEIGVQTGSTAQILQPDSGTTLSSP
Sequence of Aurora C (Q9UQB9 whole entry): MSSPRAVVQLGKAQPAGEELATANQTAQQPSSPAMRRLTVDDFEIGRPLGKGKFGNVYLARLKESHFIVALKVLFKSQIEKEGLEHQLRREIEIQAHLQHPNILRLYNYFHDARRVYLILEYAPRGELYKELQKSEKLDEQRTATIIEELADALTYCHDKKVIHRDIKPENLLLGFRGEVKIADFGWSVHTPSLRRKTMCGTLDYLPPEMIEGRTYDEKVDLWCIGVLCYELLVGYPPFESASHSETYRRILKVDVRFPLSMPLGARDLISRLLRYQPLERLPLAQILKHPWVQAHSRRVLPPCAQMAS

Structure (SMILES) | pIC50 (cKIT) | pIC50 (Aurora B) | further results
Nc1ncc(-c2cnn(CCO)c2)c2scc(-c3ccc(NC(=O)Nc4cccc(F)c4)cc3)c12 [Example 1, N-(4-{4-amino-7-[1-(2-hydroxyethyl)-1H-pyrazol-4-yl]thieno[3,2-c]pyridin-3-yl}phenyl)-N′-(3-fluorophenyl)urea] |  |  | pIC50 (Aurora C): 9.00
Nc1ncc(-c2cnn(CCO)c2)c2scc(-c3ccc(NC(=O)Nc4ccc(OC(F)F)cc4)cc3)c12 [Example 2, N-(4-{4-amino-7-[1-(2-hydroxyethyl)-1H-pyrazol-4-yl]thieno[3,2-c]pyridin-3-yl}phenyl)-N′-[4-(difluoromethoxy)phenyl]urea] | 7.56 | 8.10 | 
Cc1cccc(NC(=O)Nc2ccc(-c3csc4c(-c5cnn(C[C@H](C)O)c5)cnc(N)c34)cc2)c1 [Example 3, N-[4-(4-amino-7-{1-[(2S)-2-hydroxypropyl]-1H-pyrazol-4-yl}thieno[3,2-c]pyridin-3-yl)phenyl]-N′-(3-methylphenyl)urea] |  | 7.95 | 
COc1ccc(NC(=O)Nc2ccc(-c3csc4c(-c5cnn(CC(C)(C)O)c5)cnc(N)c34)cc2)cc1 [Example 4, N-(4-{4-amino-7-[1-(2-hydroxy-2-methylpropyl)-1H-pyrazol-4-yl]thieno[3,2-c]pyridin-3-yl}phenyl)-N′-(4-methoxyphenyl)urea] |  | 7.83 | pIC50 (KDR): 8.30; pIC50 (CYP 3A4; read-out: CYP 3A4 IC50, coincubation (Co), Co: reaction initiated by addition of NADPH, 2 μM midazolam): < 5.00; pIC50 (CYP 3A4; read-out: CYP 3A4 IC50, preincubation (Pre), Pre: microsomes, compound, NADPH incubated 30 minutes before midazolam): < 5.00
COc1ccc(NC(=O)Nc2ccc(-c3csc4c(-c5cnn(C[C@H](O)CO)c5)cnc(N)c34)cc2)cc1 [Example 5, N-[4-(4-amino-7-{1-[(2S)-2,3-dihydroxypropyl]-1H-pyrazol-4-yl}thieno[3,2-c]pyridin-3-yl)phenyl]-N′-(4-methoxyphenyl)urea] | 7.90 |  | 
Cc1cccc(NC(=O)Nc2ccc(-c3csc4c(-c5cn[nH]c5)cnc(N)c34)cc2)c1 [Example 6, N-{4-[4-amino-7-(1H-pyrazol-4-yl)thieno[3,2-c]pyridin-3-yl]phenyl}-N′-(3-methylphenyl)urea, reference compound] |  | 8.07 | 
